Measurements taken from patent US6914045B2, “Glycopeptide antibiotics” (Wyeth Holdings Corporation, priority 2001, dated 2005).
Converted amounts (≈) assume the structure as drawn. “And” between values parts separate entries of the source, which are not always exact repeats. Equal entries are not always repeated.

Key:
Staphylococcus aureus = test: zone of inhibition, agar well assay plate; type: cell-based; details: 25 μl of extract per 5 mm well, incubated overnight at 37° C.
Description: Protocol for Assay Plate Staphylococcus aureus
Inoculate 10 mL of Tryptic Soy Broth with a loopful of slant culture, Staphylococcus aureus, and place in a stationary rack at 37° C. After 16-18 hour incubation, the Optical Density (OD) of the culture is read@A600 nm, using a 1:10 dilution. OD should be between 0.1-0.3, and if not adjust with Tryptic Soy Broth. A 40 mL sample of Nutrient Agar, pH 6.8 is inoculated with 90 ul of S. aureus culture and poured into a sterile petri dish. When the agar has solidified, wells (5 mm) are plated using an automated welling device. Wells are inoculated with 25 μl of extract and incubated overnight at 37° C. Zones of inhibition are measured and recorded the following morning.

[1] = tested on: Enterococcus faecalis (GC 6189); test: acute lethal infection in mice; type: in vivo; details: female CD-1 mice, intraperitoneal challenge, intravenous 30 min. after infection, 7 day survival
Procedure, shortened: (§1)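 Mice (female CD-1, 20+/−2 gm) receive bacteria ip in broth or hog gastric mucin, then test agent iv after 30 min. Median effective dose is calculated from 7 day survival pooled across 3 tests.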

[2] = tested on: Staphylococcus aureus-SMITH (GC 4543); test: acute lethal infection in mice; type: in vivo; details: acute lethal infection, female CD-1 mice, intraperitoneal challenge, intravenous 30 min. after infection, 7 day survival
Procedure, shortened: as §1

Staphylococcus sp. = test: in vitro antibacterial evaluation, MIC by broth dilution; type: cell-based; details: broth dilution, 18 hours at 35° C.
Procedure, shortened: (§2)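 Inoculum 5×10^5 CFU/mL; concentrations 64 to 0.06 μg/mL; MIC defined as lowest inhibitory level. Conducted by broth dilution under NCCLS guidelines.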

Streptococcus sp. = test: as above; type: cell-based; details: broth dilution, 18 hours at 35° C.
Procedure, shortened: as §2

Enterococcus sp. = test: as above; type: cell-based; details: broth dilution, 18 hours at 35° C.
Procedure, shortened: as §2

Escherichia coli = test: as above; type: cell-based; details: 18 hours at 35° C.
Procedure, shortened: as §2

With `CCCCCC(=O)OC1C(O)C(CO)OC(OC2C(CO)OC(Oc3ccc(CC4NC(=O)C(C(C)c5ccccc5)NC(=O)CNC(=O)C(CO)NC(=O)C(C(O)C5CNC(=N)N5C5OC(CO)C(O)C(O)C5O)NC(=O)C(C(O)C5CNC(=N)N5)NC4=O)cc3)C(O)C2O)C1O` (stereo not drawn) [Example 273b, Cyclo[glycyl-β-methylphenylalanyl-O-[4-O-(3-O-hexanoyl-hexopyranosyl)-hexopyranosyl]tyrosyl-3-(2-iminoimidazolidin-4-yl)seryl-3-(3-hexopyranosyl-2-iminoimidazolidin-4-yl)serylseryl]] the “Zone of Inhibition vs. S. aureus” value (Staphylococcus aureus) was 9 mm and 8 mm.

In the case of `CCCCCCC(=O)OC1C(O)C(CO)OC(OC2C(CO)OC(Oc3ccc(CC4NC(=O)C(C(C)c5ccccc5)NC(=O)CNC(=O)C(CO)NC(=O)C(C(O)C5CNC(=N)N5C5OC(CO)C(O)C(O)C5O)NC(=O)C(C(O)C5CNC(=N)N5)NC4=O)cc3)C(O)C2O)C1O` (stereo not drawn) [Example 274b, Cyclo[glycyl-β-methylphenylalanyl-O-[4-O-(3-O-heptanoyl-hexopyranosyl)-hexopyranosyl]tyrosyl-3-(2-iminoimidazolidin-4-yl)seryl-3-(3-hexopyranosyl-2-iminoimidazolidin-4-yl)serylseryl]], the “Zone of Inhibition vs. S. aureus” value (Staphylococcus aureus) is reported as 10 mm.

For `CCC(C)CC(=O)OC1C(CO)OC(OC2C(CO)OC(Oc3ccc(CC4NC(=O)C(C(C)c5ccccc5)NC(=O)CNC(=O)C(CO)NC(=O)C(C(O)C5CNC(=N)N5C5OC(CO)C(O)C(O)C5O)NC(=O)C(C(O)C5CNC(=N)N5)NC4=O)cc3)C(O)C2O)C(O)C1O` (stereo not drawn) [Example 271c, Cyclo[glycyl-β-methylphenylalanyl-O-[4-O-[4-O-(3-methylpentanoyl)hexopyranosyl]-hexopyranosyl]tyrosyl-3-(2-iminoimidazolidin-4 yl)seryl-3-(3-hexopyranosyl-2-iminoimidazolidin-4-yl)serylseryl]], the “Zone of Inhibition vs. S. aureus” value (Staphylococcus aureus) was 12 mm.

With `CC(C)CCC(=O)OC1C(CO)OC(OC2C(CO)OC(Oc3ccc(CC4NC(=O)C(C(C)c5ccccc5)NC(=O)CNC(=O)C(CO)NC(=O)C(C(O)C5CNC(=N)N5C5OC(CO)C(O)C(O)C5O)NC(=O)C(C(O)C5CNC(=N)N5)NC4=O)cc3)C(O)C2O)C(O)C1O` (stereo not drawn) [Example 270c, Cyclo[glycyl-β-methylphenylalanyl-O-[4-O-[4-O-(4-methylpentanoyl)hexopyranosyl]-hexopyranosyl]tyrosyl-3-(2-iminoimidazolidin-4-yl)seryl-3-(3-hexopyranosyl-2-iminoimidazolidin-4-yl)serylseryl]] the “Zone of Inhibition vs. S. aureus” value (Staphylococcus aureus) was 11 mm.

`Cc1cccc(C2OCC3OC(OC4C(CO)OC(Oc5ccc(CC6NC(=O)C(C(C)c7ccccc7)NC(=O)CNC(=O)C(CO)NC(=O)C(C(O)C7CNC(=N)N7C7OC(CO)C(O)C(O)C7O)NC(=O)C(C(O)C7CNC(=N)N7)NC6=O)cc5)C(O)C4O)C(O)C(O)C3O2)c1` (stereo not drawn) [Example 135, Cyclo[glycyl-β-methylphenylalanyl-O-[4-O-[4,6-O-(3-methylbenzylidene)hexopyranosyl]-hexopyranosyl]tyrosyl-3-(2-iminoimidazolidin-4-yl)seryl-3-(3-hexopyranosyl-2-iminoimidazolidin-4-yl)serylseryl]] was tested, and the median effective dose (ED50), Enterococcus faecalis (GC 6189) [1] was 0.26 mg/kg, the median effective dose (ED50), Staphylococcus aureus-SMITH (GC 4543) [2] was 0.07 mg/kg and the “MIC Staphylococcus aureus (ATCC 29213)” value (Staphylococcus sp.) was 1 µg/mL (≈ 0.716 µM). The “MIC Staphylococcus aureus (GC 1131)” value (Staphylococcus sp.) was 1 µg/mL (≈ 0.716 µM), the “MIC Staphylococcus aureus (GC 3051)” value (Staphylococcus sp.) was 1 µg/mL (≈ 0.716 µM) and the “MIC Staphylococcus aureus (GC 3053)” value (Staphylococcus sp.) was 1 µg/mL (≈ 0.716 µM). The “MIC Staphylococcus aureus (GC 4541)” value (Staphylococcus sp.) was 1 µg/mL (≈ 0.716 µM), the “MIC Staphylococcus aureus (GC 4542)” value (Staphylococcus sp.) was 1 µg/mL (≈ 0.716 µM) and the “MIC Staphylococcus aureus (GC 4544)” value (Staphylococcus sp.) was 2 µg/mL (≈ 1.43 µM). The “MIC Staphylococcus aureus (GC 4545)” value (Staphylococcus sp.) was 1 µg/mL (≈ 0.716 µM), the “MIC Staphylococcus aureus (GC 1131)” value (Staphylococcus sp.; inoculum 5×10^5 CFU/mL, strain GC 1131) was 1 µg/mL (≈ 0.716 µM) and the “MIC Staphylococcus aureus (ATCC 29213)” value (Staphylococcus sp.; strain ATCC 29213) was 1 µg/mL (≈ 0.716 µM). For the same compound, the “MIC Staphylococcus aureus (GC 3051)” value (Staphylococcus sp.; strain GC 3051) was 1 µg/mL (≈ 0.716 µM), the “MIC Staphylococcus aureus (GC 3053)” value (Staphylococcus sp.; strain GC 3053) was 1 µg/mL (≈ 0.716 µM) and the “MIC Staphylococcus aureus (GC 4541)” value (Staphylococcus sp.; strain GC 4541) was 1 µg/mL (≈ 0.716 µM). For the same compound, the “MIC Staphylococcus aureus (GC 4542)” value (Staphylococcus sp.; strain GC 4542) was 1 µg/mL (≈ 0.716 µM), the “MIC Staphylococcus aureus-SMITH (GC 4543)” value (Staphylococcus sp.; strain GC 4543) was 1 µg/mL (≈ 0.716 µM) and the “MIC Staphylococcus aureus (GC 4544)” value (Staphylococcus sp.; strain GC 4544) was 2 µg/mL (≈ 1.43 µM). For the same compound, the “MIC Staphylococcus aureus (GC 4545)” value (Staphylococcus sp.; strain GC 4545) was 1 µg/mL (≈ 0.716 µM), the “MIC Staphylococcus haemolyticus (GC 4546)” value (Staphylococcus sp.; strain GC 4546) was 0.5 µg/mL (≈ 0.358 µM) and the “MIC Coagulase Negative Staphylococcus (GC 4547)” value (Staphylococcus sp.; strain GC 4547) was 1 µg/mL (≈ 0.716 µM). For the same compound, the “MIC Coagulase Negative Staphylococcus (GC 4548)” value (Staphylococcus sp.; strain GC 4548) was 0.5 µg/mL (≈ 0.358 µM), the “MIC Coagulase Negative Staphylococcus (GC 4549)” value (Staphylococcus sp.; strain GC 4549) was 0.5 µg/mL (≈ 0.358 µM) and the “MIC Coagulase Negative Staphylococcus (GC 4551)” value (Staphylococcus sp.; strain GC 4551) was 1 µg/mL (≈ 0.716 µM). The “MIC Coagulase Negative Staphylococcus (GC 6257)” value (Staphylococcus sp.; strain GC 6257) was 0.5 µg/mL (≈ 0.358 µM), the “MIC Staphylococcus aureus-SMITH (GC 4543)” value (Staphylococcus sp.; strain SMITH GC 4543) was 1 µg/mL (≈ 0.716 µM) and the “MIC Streptococcus agalactiae (GC 4564)” value (Streptococcus sp.; Streptococcus agalactiae (GC 4564)) was 0.25 µg/mL (≈ 0.179 µM). For the same compound, the “MIC Streptococcus pneumoniae (ATCC 6301)” value (Streptococcus sp.; Streptococcus pneumoniae (ATCC 6301)) was <0.06 µg/mL, the “MIC Streptococcus pneumoniae (GC 1894)” value (Streptococcus sp.; Streptococcus pneumoniae (GC 1894)) was <0.06 µg/mL and the “MIC Streptococcus pneumoniae (GC 4565)” value (Streptococcus sp.; Streptococcus pneumoniae (GC 4565)) was <0.06 µg/mL. The “MIC Streptococcus pyogenes (GC 4563)” value (Streptococcus sp.; Streptococcus pyogenes (GC 4563)) was 0.25 µg/mL (≈ 0.179 µM), the “MIC Streptococcus pneumoniae (ATCC 6301)” value (Streptococcus sp.; strain ATCC 6301) was <0.06 µg/mL and the “MIC Streptococcus pneumoniae (GC 1894)” value (Streptococcus sp.; strain GC 1894) was <0.06 µg/mL. For the same compound, the “MIC Streptococcus pyogenes (GC 4563)” value (Streptococcus sp.; strain GC 4563) was 0.25 µg/mL (≈ 0.179 µM), the “MIC Streptococcus agalactiae (GC 4564)” value (Streptococcus sp.; strain GC 4564) was 0.25 µg/mL (≈ 0.179 µM) and the “MIC Streptococcus pneumoniae (GC 4565)” value (Streptococcus sp.; strain GC 4565) was <0.06 µg/mL. For the same compound, the “MIC Enterococcus avium (GC 4558)” value (Enterococcus sp.; Enterococcus avium (GC 4558)) was 2 µg/mL (≈ 1.43 µM), the “MIC Enterococcus faecalis (ATCC 29212)” value (Enterococcus sp.; Enterococcus faecalis (ATCC 29212)) was 2 µg/mL (≈ 1.43 µM) and the “MIC Enterococcus faecalis (GC 2242)” value (Enterococcus sp.; Enterococcus faecalis (GC 2242)) was 2 µg/mL (≈ 1.43 µM). For the same compound, the “MIC Enterococcus faecalis (GC 2691)” value (Enterococcus sp.; Enterococcus faecalis (GC 2691)) was 2 µg/mL (≈ 1.43 µM), the “MIC Enterococcus faecalis (GC 3059)” value (Enterococcus sp.; Enterococcus faecalis (GC 3059)) was 2 µg/mL (≈ 1.43 µM) and the “MIC Enterococcus faecalis (GC 4552)” value (Enterococcus sp.; Enterococcus faecalis (GC 4552)) was 2 µg/mL (≈ 1.43 µM). For the same compound, the “MIC Enterococcus faecalis (GC 4553)” value (Enterococcus sp.; Enterococcus faecalis (GC 4553)) was 2 µg/mL (≈ 1.43 µM), the “MIC Enterococcus faecalis (GC 4554)” value (Enterococcus sp.; Enterococcus faecalis (GC 4554)) was 2 µg/mL (≈ 1.43 µM) and the “MIC Enterococcus faecalis (GC 6189)” value (Enterococcus sp.; Enterococcus faecalis (GC 6189)) was 2 µg/mL (≈ 1.43 µM). For the same compound, the “MIC Enterococcus faecium (GC 2243)” value (Enterococcus sp.; Enterococcus faecium (GC 2243)) was 2 µg/mL (≈ 1.43 µM), the “MIC Enterococcus faecium (GC 4556)” value (Enterococcus sp.; Enterococcus faecium (GC 4556)) was 2 µg/mL (≈ 1.43 µM) and the “MIC Enterococcus faecium (GC 4557)” value (Enterococcus sp.; Enterococcus faecium (GC 4557)) was 2 µg/mL (≈ 1.43 µM). The “MIC Enterococcus faecalis (ATCC 29212)” value (Enterococcus sp.; strain ATCC 29212) was 2 µg/mL (≈ 1.43 µM), the “MIC Enterococcus faecalis (GC 2242)” value (Enterococcus sp.; strain GC 2242) was 2 µg/mL (≈ 1.43 µM) and the “MIC Enterococcus faecium (GC 2243)” value (Enterococcus sp.; strain GC 2243) was 2 µg/mL (≈ 1.43 µM). The “MIC Enterococcus faecalis (GC 2691)” value (Enterococcus sp.; strain GC 2691) was 2 µg/mL (≈ 1.43 µM), the “MIC Enterococcus faecalis (GC 3059)” value (Enterococcus sp.; strain GC 3059) was 2 µg/mL (≈ 1.43 µM) and the “MIC Enterococcus faecalis (GC 4552)” value (Enterococcus sp.; strain GC 4552) was 2 µg/mL (≈ 1.43 µM). For the same compound, the “MIC Enterococcus faecalis (GC 4553)” value (Enterococcus sp.; strain GC 4553) was 2 µg/mL (≈ 1.43 µM), the “MIC Enterococcus faecalis (GC 4554)” value (Enterococcus sp.; strain GC 4554) was 2 µg/mL (≈ 1.43 µM) and the “MIC Enterococcus faecium (GC 4556)” value (Enterococcus sp.; strain GC 4556) was 2 µg/mL (≈ 1.43 µM). The “MIC Enterococcus faecium (GC 4557)” value (Enterococcus sp.; strain GC 4557) was 2 µg/mL (≈ 1.43 µM), the “MIC Enterococcus avium (GC 4558)” value (Enterococcus sp.; strain GC 4558) was 2 µg/mL (≈ 1.43 µM) and the “MIC Enterococcus faecalis (GC 6189)” value (Enterococcus sp.; strain GC 6189) was 2 µg/mL (≈ 1.43 µM). For the same compound, the “MIC Escherichia coli (ATCC 25922)” value (Escherichia coli; strain ATCC 25922) was 32 µg/mL (≈ 22.9 µM), the “MIC Escherichia coli (GC 4559)” value (Escherichia coli; strain GC 4559) was 32 µg/mL (≈ 22.9 µM) and the “MIC Escherichia coli (GC 4560)” value (Escherichia coli; strain GC 4560) was 0.5 µg/mL (≈ 0.358 µM).
